What all share (assay): relative viability (nuclei count vs DMSO), 5 days (fraction); higher = more cells survive
Compound in the test “Quizartinib + Trametinib”: CC(C)(C)c1cc(NC(=O)Nc2ccc(-c3cn4c(n3)sc3cc(OCCN5CCOCC5)ccc34)cc2)no1 [Quizartinib] + CC(=O)Nc1cccc(-n2c(=O)n(C3CC3)c(=O)c3c(Nc4ccc(I)cc4F)n(C)c(=O)c(C)c32)c1 [Trametinib] (partner 0.02 µM)
The method in brief: (§1)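 The day after seeding in 1536-well plates, lung cancer cell lines were treated by pin tool with a single drug, or with a fixed anchor-drug dose together with five library-drug doses (not always all listed) in √10 steps. After 5 days, a combined fix-and-stain solution (final 0.05% Triton X-100, 1% formaldehyde, 1 ug/ml Hoechst) was added. Nuclei counted on 4× images gave relative viability as treated counts over vehicle counts, reported as the median of duplicate plates.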

Compound in the test “Quizartinib + Alpelisib”: CC(C)(C)c1cc(NC(=O)Nc2ccc(-c3cn4c(n3)sc3cc(OCCN5CCOCC5)ccc34)cc2)no1 [Quizartinib] + Cc1nc(NC(=O)N2CCC[C@H]2C(N)=O)sc1-c1ccnc(C(C)(C)C(F)(F)F)c1 [Alpelisib] (partner 2 µM)
The essentials:
as §1

Compound in the test “Quizartinib + Phenformin”: CC(C)(C)c1cc(NC(=O)Nc2ccc(-c3cn4c(n3)sc3cc(OCCN5CCOCC5)ccc34)cc2)no1 [Quizartinib] + N=C(N)NC(=N)NCCc1ccccc1 [Phenformin] (partner 250 µM)
The method in brief:
as §1

Compound in the test “YM155 + Vorinostat”: COCC[n+]1c2c(n(Cc3cnccn3)c1C)C(=O)c1ccccc1C2=O [YM155] + O=C(CCCCCCC(=O)Nc1ccccc1)NO [Vorinostat] (partner 1 µM)
The essentials:
as §1

NCI-H1755: the relative viability worked out at 0.744 with Quizartinib + Trametinib (first compound 0.001 µM); 0.851 in the test with Quizartinib + Trametinib (first compound 0.003162 µM); 0.856 with Quizartinib + Trametinib (first compound 0.01 µM); 0.784 with Quizartinib + Trametinib (first compound 0.03162 µM); 0.755 with Quizartinib + Trametinib (first compound 0.1 µM); 0.798 in the test with Quizartinib + Alpelisib (first compound 0.001 µM). Moreover, the relative viability with Quizartinib + Alpelisib (first compound 0.003162 µM) was found to be 0.851; with Quizartinib + Alpelisib (first compound 0.01 µM), 0.975; in the test with Quizartinib + Alpelisib (first compound 0.03162 µM) it was 0.917; in the test with Quizartinib + Alpelisib (first compound 0.1 µM) it was 0.923; with Quizartinib + Phenformin (first compound 0.001 µM) it was 0.58; with Quizartinib + Phenformin (first compound 0.003162 µM), 0.665. In addition, the relative viability was determined as 0.609 in the test with Quizartinib + Phenformin (first compound 0.01 µM); 0.652 in the test with Quizartinib + Phenformin (first compound 0.03162 µM); 0.672 with Quizartinib + Phenformin (first compound 0.1 µM); 0.752 with YM155 + Vorinostat (first compound 0.002 µM); 0.671 with YM155 + Vorinostat (first compound 0.006325 µM); 0.622 with YM155 + Vorinostat (first compound 0.02 µM). For the same cell line, the relative viability with YM155 + Vorinostat (first compound 0.06325 µM) came out at 0.845.
On to NCI-H1793, for which the relative viability is 0.395 in the test with Quizartinib + Trametinib (first compound 0.001 µM); 0.435 in the test with Quizartinib + Trametinib (first compound 0.003162 µM); 0.444 with Quizartinib + Trametinib (first compound 0.01 µM); 0.448 in the test with Quizartinib + Trametinib (first compound 0.03162 µM); 0.452 with Quizartinib + Trametinib (first compound 0.1 µM); 0.588 with Quizartinib + Alpelisib (first compound 0.001 µM). Also, the relative viability in the test with Quizartinib + Alpelisib (first compound 0.003162 µM) turned out to be 0.875; with Quizartinib + Alpelisib (first compound 0.01 µM) it was 0.788; in the test with Quizartinib + Alpelisib (first compound 0.03162 µM), 0.731; with Quizartinib + Alpelisib (first compound 0.1 µM) it was 0.798; in the test with Quizartinib + Phenformin (first compound 0.001 µM), 0.361; with Quizartinib + Phenformin (first compound 0.003162 µM), 0.338. The relative viability with Quizartinib + Phenformin (first compound 0.01 µM) worked out at 0.385; with Quizartinib + Phenformin (first compound 0.03162 µM), 0.317; with Quizartinib + Phenformin (first compound 0.1 µM), 0.37; with YM155 + Vorinostat (first compound 0.002 µM), 0.719; in the test with YM155 + Vorinostat (first compound 0.006325 µM), 0.641; in the test with YM155 + Vorinostat (first compound 0.02 µM), 0.89. In the test with YM155 + Vorinostat (first compound 0.06325 µM), the relative viability is 0.74.
Regarding NCI-H1915, the relative viability with Quizartinib + Trametinib (first compound 0.001 µM) was 0.28; with Quizartinib + Trametinib (first compound 0.003162 µM) it was 0.31; with Quizartinib + Trametinib (first compound 0.01 µM) it was 0.331; with Quizartinib + Trametinib (first compound 0.03162 µM), 0.29; in the test with Quizartinib + Trametinib (first compound 0.1 µM) it was 0.313; with Quizartinib + Alpelisib (first compound 0.001 µM), 1.03. The relative viability with Quizartinib + Alpelisib (first compound 0.003162 µM) worked out at 1.01; in the test with Quizartinib + Alpelisib (first compound 0.01 µM) it was 1.06; in the test with Quizartinib + Alpelisib (first compound 0.03162 µM) it was 1.11; with Quizartinib + Alpelisib (first compound 0.1 µM), 1.16; with Quizartinib + Phenformin (first compound 0.001 µM) it was 0.345; in the test with Quizartinib + Phenformin (first compound 0.003162 µM) it was 0.374. The relative viability with Quizartinib + Phenformin (first compound 0.01 µM) was found to be 0.408; with Quizartinib + Phenformin (first compound 0.03162 µM) it was 0.353; in the test with Quizartinib + Phenformin (first compound 0.1 µM), 0.38; in the test with YM155 + Vorinostat (first compound 0.002 µM), 0.516; with YM155 + Vorinostat (first compound 0.006325 µM), 0.519; with YM155 + Vorinostat (first compound 0.02 µM), 0.525. In addition, in the test with YM155 + Vorinostat (first compound 0.06325 µM), the relative viability amounted to 0.533.
For NCI-H1944, the relative viability with Quizartinib + Trametinib (first compound 0.001 µM) amounted to 0.453; with Quizartinib + Trametinib (first compound 0.003162 µM), 0.405; in the test with Quizartinib + Trametinib (first compound 0.01 µM) it was 0.419; with Quizartinib + Trametinib (first compound 0.03162 µM), 0.448; in the test with Quizartinib + Trametinib (first compound 0.1 µM) it was 0.313; with Quizartinib + Alpelisib (first compound 0.001 µM) it was 0.691. The relative viability with Quizartinib + Alpelisib (first compound 0.003162 µM) turned out to be 0.826; with Quizartinib + Alpelisib (first compound 0.01 µM) it was 0.898; with Quizartinib + Alpelisib (first compound 0.03162 µM), 0.89; in the test with Quizartinib + Alpelisib (first compound 0.1 µM) it was 0.805; with Quizartinib + Phenformin (first compound 0.001 µM), 0.206; with Quizartinib + Phenformin (first compound 0.003162 µM) it was 0.209. The relative viability stood at 0.182 with Quizartinib + Phenformin (first compound 0.01 µM); 0.192 with Quizartinib + Phenformin (first compound 0.03162 µM); 0.173 in the test with Quizartinib + Phenformin (first compound 0.1 µM); 0.596 with YM155 + Vorinostat (first compound 0.002 µM); 0.511 in the test with YM155 + Vorinostat (first compound 0.006325 µM); 0.599 in the test with YM155 + Vorinostat (first compound 0.02 µM). The relative viability with YM155 + Vorinostat (first compound 0.06325 µM) is 0.629.

(Values after the supplement of paper PMC10307832.)
